# From patent US11890279B2, “Quinolines that modulate SERCA and their use for treating disease” (Neurodon Corporation, priority 2020, dated 2024)
# Tests used:
# [1] = tested on: SERCA (SR vesicles); experiment: Activation of SERCA, increase in Vmax; format: biochemical
# [2] = tested on: HeLa cells overexpressing BI-1; experiment: Effect of a SERCA agonist on [Ca2+]ER (ER cameleon); format: cell-based; conditions: 24 hrs treatment, ER cameleon YFP/CFP
# Experimental: To directly measure ER Ca^2+ content, a genetically encoded Ca^2+ indicator, ER cameleon, was used. HeLa cells were transfected with ER-cameleon encoding plasmid for 2 days before analysis. Cells were treated with a test compound for 24 hrs and imaged in Ca^2+-free HBSS upon addition of thapsigargin to deplete ER stores. Emission ratio imaging of the ER cameleon was accomplished using a 430/24 excitation filter, 450-nm dichroic mirror, and two emission filters (475/40 for CFP and 535/25 for YFP). The fluorescence ratio of YFP/CFP is a measure of relative ER Ca^2+ levels.
# [3] = tested on: rabbit monoamine transporter; experiment: Selectivity panel of 164 targets; conditions: 10 μM in duplicate; one of only 4 hits among 164 targets
# Text: (§1) The methods used here for each target were adapted from the scientific literature to maximize reliability and reproducibility.
# [4] = target: human adenosine A2A (Homo sapiens (Human), UniProt P29274); experiment: Selectivity panel of 164 targets; conditions: 10 μM in duplicate; one of only 4 hits among 164 targets
# Text: as §1
# [5] = target: human nerepinephrine (NET) transporter (Homo sapiens (Human), UniProt P23975); experiment: Selectivity panel of 164 targets; conditions: 10 μM in duplicate; one of only 4 hits among 164 targets
# Text: as §1
# [6] = Brain barrier penetration in mice; format: in vivo; conditions: mouse, brain/plasma, 10 mg/kg IP, 1 hr after dosing, read-out: brain/plasma ratio
# Text: The brains of the mice were harvested 1 hr after dosing. The brain/plasma ratio was 2.6.
# [7] = tested on: APP-PS1 mice; experiment: Aβ deposition, thioflavin S staining; format: in vivo, mouse; conditions: 10 mg/kg ip, 4 weeks, vs saline
# Experimental: Mice were transcardially perfused with ice-cold PBS (3 mL) followed by 4% paraformaldehyde (5 mL). Brains were extracted and fixed overnight in 30% sucrose-cryoprotectant solution. Coronal hippocampal sections […] thick were cut on a cryostat and collected in TBS (0.1 M Tris, 0.9% saline, pH 7.4). Thioflavin S Staining: Free-floating hippocampal sections were washed with TBS (4×3 min). The sections were soaked in 0.5% thioflavin S (in 50/50 ethyl alcohol/distilled water, Sigma-Aldrich) for 10 min, followed by 2×3 min washes with 50% ethyl alcohol. Sections were washed again with TBS (2×3 min), mounted with minimal drying, and coverslipped with anti-fade mounting medium PVA-DABCO for microscopy. Confocal images of immunolabeled tissue were obtained using 4× and 10× objective lenses on the Olympus Fluoview confocal microscope. Density of amyloid plaques was quantified by averaging the percent area staining positive (thresholded above background staining, as determined by software parameters and experimenter confirmation) within the hippocampus and cortex from 3-5 sections from each experimental animal using MetaMorph Software (Molecular Devices). There were no significant differences in the intensity of background threshold values across animal strains or treatment conditions (p>0.05). The experimenter was blind to animal strain and treatment condition. […] Mice were ˜6 months of age.
# Chain of human adenosine A2A (P29274 whole entry): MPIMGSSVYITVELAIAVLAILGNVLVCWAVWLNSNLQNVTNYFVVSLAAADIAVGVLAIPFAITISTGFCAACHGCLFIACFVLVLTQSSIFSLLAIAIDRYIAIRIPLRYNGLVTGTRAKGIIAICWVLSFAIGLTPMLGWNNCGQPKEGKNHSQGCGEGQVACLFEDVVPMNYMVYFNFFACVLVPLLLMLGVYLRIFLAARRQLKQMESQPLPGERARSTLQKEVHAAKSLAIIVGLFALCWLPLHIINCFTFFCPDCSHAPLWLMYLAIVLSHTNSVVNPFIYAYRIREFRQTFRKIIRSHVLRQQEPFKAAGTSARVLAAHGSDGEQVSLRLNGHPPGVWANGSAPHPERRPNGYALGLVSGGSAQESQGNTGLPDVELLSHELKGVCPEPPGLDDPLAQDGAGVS
compound,measurement,setting,value
"Cc1ccc2cccc(NC(=O)c3ccc(OC(C)C)cc3)c2n1 [Compound A12, 4-Isopropoxy-N-(2-methylquinolin-8-yl)benzamide]",Increase in Vmax at 10 μM,[1],A′ (A′ represents an increase greater than 50%)
same,[Ca^2+]ER,[2],significantly restored
same,response against rabbit monoamine transporter,[3],significant responses
same,response against human adenosine A2A,[4],significant responses
same,response against human NET transporter,[5],significant responses
same,Kp at 1 h,[6],2.6
same,amyloid plaques stained with Thioflavin S,[7],reduced
